Data: PMC10489938, “Developing an Amide-Spacered Triterpenoid Rhodamine Hybrid of Nano-Molar Cytotoxicity Combined with Excellent Tumor Cell/Non-Tumor Cell Selectivity” (Molecules, 2023)
Structures can show the parent of a compound that is named as a salt. Where two headings read alike, the source gives them in different places.

Experiments:
[1] = tested on: A375 (melanoma); test: SRB cytotoxicity assay, A375; assay type: cell-based, human; conditions: read-out: Cytotoxicity (EC50) A375
Protocol: (§1) Sulforhodamine (SRB) assays were performed to evaluate the cytotoxicity of the compounds. First, the cytotoxicity of the different rhodamines was determined; the results of these assays are compiled in Table 1 and Table 2 and depicted in Figure 1.
(§2) Experimental equipment: as previously described biological assays were performed as previously reported employing cell lines obtained from the Department of Oncology [Martin-Luther-University Halle Wittenberg; they were bought from ATCC [2, 4, 7]]. Rhodamine 101 B, as well as asiatic acid, were obtained from local vendors and used as received.
(§3) For the SRB assay and staining experiments: as previously described.

[2] = tested on: A2780 (ovarian carcinoma); test: SRB cytotoxicity assay, A2780; assay type: cell-based, human; conditions: read-out: Cytotoxicity (EC50) A2780
Protocol: as §1, §2, §3

[3] = tested on: HT29 (colorectal carcinoma); test: SRB cytotoxicity assay, HT29; assay type: cell-based, human; conditions: read-out: Cytotoxicity (EC50) HT29
Protocol: as §1, §2, §3

[4] = SRB cytotoxicity assay, NIH 3T3; assay type: cell-based, murine; conditions: mouse, NIH 3T3 non-malignant fibroblasts, Table 1, 72 h of treatment, cut-off 30 μM
Protocol: as §1, §2, §3

[5] = tested on: MCF7 (breast adenocarcinoma); test: SRB cytotoxicity assay, MCF7; assay type: cell-based, human; conditions: read-out: Cytotoxicity (EC50) MCF7
Protocol: as §1, §2, §3

[6] = tested on: human tumor cell lines and non-malignant fibroblasts (NIH 3T3); test: SRB cytotoxicity assay, several cell lines stated together; assay type: cell-based; conditions: all human tumor cell lines and non-malignant fibroblasts (NIH 3T3), limits of the assay
Protocol: as §1, §2, §3

[7] = tested on: HeLa (cervical adenocarcinoma); test: SRB cytotoxicity assay, HeLa; assay type: cell-based, human; conditions: read-out: Cytotoxicity (EC50) HeLa
Protocol: as §1, §2, §3

[8] = tested on: NIH 3T3 (non-malignant fibroblasts, murine); test: SRB cytotoxicity assay, NIH 3T3; assay type: cell-based; conditions: Table 1, 72 h of treatment, cut-off 30 μM
Protocol: as §1, §2, §3

[9] = Table 1, SRB assay, 72 h of treatment, cut-off 30 μM

With `CN(C)c1ccc2c(-c3ccccc3C(=O)O)c3ccc(=[N+](C)C)cc-3oc2c1` [Rh1, reference compound] the EC50 ([1]; Homo sapiens, A-375, 72 h) was > 30 µM, the EC50 ([2]; Homo sapiens, A2780, 72 h) was > 30 µM and the EC50 ([3]; Homo sapiens, HT-29, 72 h) was > 30 µM. The EC50 at 72 h [4] was > 30 µM, the EC50 ([5]; Homo sapiens, MCF7, 72 h) was > 30 µM and the EC50 ([6]; NIH3T3) was > 30 µM. For the same compound, the EC50 ([7]; Homo sapiens, HeLa, 72 h) was > 30 µM.
In the case of `CC(=O)OC[C@@]1(C)C2CC[C@]3(C)[C@H](CC=C4[C@@H]5[C@@H](C)[C@H](C)CC[C@]5(C(=O)N5CCN(C(=O)c6ccccc6C6=c7cc8c9c(c7Oc7c6cc6c%10c7CCCN%10CCC6)CCC[N+]=9CCC8)CC5)CC[C@]43C)[C@@]2(C)C[C@@H](OC(C)=O)[C@@H]1OC(C)=O` (some centres unmarked) (as salt: chloride) [compound 10], the melting point is reported as 244 to 247 °C.
Work on `CCCN(CCC)c1ccc2c(-c3ccccc3C(=O)N3CCCN(C(=O)[C@]45CC[C@@H](C)[C@H](C)[C@H]4C4=CC[C@@H]6[C@@]7(C)C[C@@H](OC(C)=O)[C@H](OC(C)=O)[C@@](C)(COC(C)=O)C7CC[C@@]6(C)[C@]4(C)CC5)CC3)c3ccc(=[N+](CCC)CCC)cc-3oc2c1` (stereo partly drawn) (as salt: chloride) [compound 13, (2α,3β,4α)-9-[2-{[4-(2α,3β,23-Tris(Acetyloxy)-urs-12-en-28-oyl)-Homopiperazinyl]Carbonyl}Phenyl]-3,6-Bis(Dipropylamino)-Xanthylium Chloride] yielded a melting point of 224 to 225 °C.
For `CC(=O)OC[C@@]1(C)C2CC[C@]3(C)[C@H](CC=C4[C@@H]5[C@@H](C)[C@H](C)CC[C@]5(C(=O)N5CCN(C(=O)c6ccccc6-c6c7ccc(=[N+](C)C)cc-7oc7cc(N(C)C)ccc67)CC5)CC[C@]43C)[C@@]2(C)C[C@@H](OC(C)=O)[C@@H]1OC(C)=O` (stereo partly drawn) (as salt: chloride) [compound 6, (2α,3β,4α)-9-[2-{[4-(2,3,23-Tris(acetyloxy)-urs-12-en-28-oyl)-Piperazinyl]Carbonyl}Phenyl]-3,6-bis(Dimethylamino)-Xanthylium Chloride], the melting point was 248 to 250 °C.
With rhodamine B [Rh2, reference compound] the EC50 [1, 9] was > 30 µM, the EC50 [2, 9] was > 30 µM and the EC50 [3, 9] was > 30 µM. For the same compound, the EC50 [8] was > 30 µM, the EC50 [5, 9] was > 30 µM and the EC50 [6] was > 30 µM. For the same compound, the EC50 [7, 9] was > 30 µM.
